This note sets out measurements from patent US20130281449A1, “Oxazine Derivatives and their Use in the Treatment of Neurological Disorders” (NOVARTIS AG, priority 2011, published 2013).

Structures can show the parent of a compound that is named as a salt.

The target of one test is Human BACE-1 (Homo sapiens, UniProt P56817). Description: Test 1: Inhibition of Human BACE-1. The test is classed as biochemical. Particulars: mean IC50 values in Test 1; recombinant BACE-1, pH 4.5. The protocol:
Test 1: Inhibition of Human BACE-1
IC50 values are calculated from percentage of inhibition of BACE-1 activity as a function of the test compound concentration.

The test system of test [1] is Cellular Release of Amyloid Peptide 1-40. The test can be described thus: Test 4: Inhibition of Cellular Release of Amyloid Peptide 1-40. The test is classed as cell-based, Chinese hamster. As to conditions: Cricetulus griseus, 24 h; read-out: Amyloid-β1-40 release IC50. How it is done: Chinese hamster ovary cells are transfected with the human gene for amyloid precursor protein. The cells are plated at a density of 8000 cells/well into 96-well microtiter plates and cultivated for 24 hours in DMEM cell culture medium containing 10% FCS. The test compound is added to the cells at various concentrations, and the cells are cultivated for 24 hours in the presence of the test compound. […] The potency of the compound is calculated from the percentage of inhibition of amyloid peptide release as a function of the test compound concentration.

Sequence of Human BACE-1 (P56817 46-457 limits assumed): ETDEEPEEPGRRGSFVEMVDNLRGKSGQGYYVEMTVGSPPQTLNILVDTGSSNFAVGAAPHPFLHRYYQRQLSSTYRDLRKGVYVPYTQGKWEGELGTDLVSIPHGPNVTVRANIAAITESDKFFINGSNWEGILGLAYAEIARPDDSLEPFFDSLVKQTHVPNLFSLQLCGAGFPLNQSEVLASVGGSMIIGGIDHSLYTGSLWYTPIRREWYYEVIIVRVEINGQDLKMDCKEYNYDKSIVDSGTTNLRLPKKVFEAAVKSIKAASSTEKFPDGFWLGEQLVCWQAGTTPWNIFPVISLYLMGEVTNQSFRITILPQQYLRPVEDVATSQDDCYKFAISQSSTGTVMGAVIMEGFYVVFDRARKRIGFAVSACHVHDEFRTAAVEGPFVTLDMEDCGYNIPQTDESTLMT

As a reminder, the IC50 is the concentration needed to halve the response being measured. Take `C[C@@]1(c2cc(NC(=O)c3ncc(C#N)cc3Cl)ccc2F)CO[C@@](C)(C(F)(F)F)C(N)=N1` [Example 17, 3-Chloro-5-cyano-pyridine-2-carboxylic acid [3-((3R,6R)-5-amino-3,6-dimethyl-6-trifluoromethyl-3,6-dihydro-2H-[1,4]oxazin-3-yl)-4-fluoro-phenyl]-amide hydrochloride]: the IC50 at Human BACE-1 was 9 nM; in test [1] it was 4 nM.
Consider `COc1cnc(C(=O)Nc2ccc(F)c([C@]3(C)CO[C@@](C)(C(F)(F)F)C(N)=N3)c2)c(Cl)c1` [Example 18, 3-Chloro-5-methoxy-pyridine-2-carboxylic acid [3-((3R,6R)-5-amino-3,6-dimethyl-6-trifluoromethyl-3,6-dihydro-2H-[1,4]oxazin-3-yl)-4-fluoro-phenyl]-amide hydrochloride], for which the 50% inhibitory concentration (IC50) on Human BACE-1 worked out at 20 nM; in test [1] it was 9 nM.
On the same counts, the results for `Cc1cc(Cl)cnc1C(=O)Nc1ccc(F)c([C@]2(C)CO[C@@](C)(C(F)(F)F)C(N)=N2)c1` [Example 20, 5-Chloro-3-methyl-pyridine-2-carboxylic acid [3-((3R,6R)-5-amino-3,6-dimethyl-6-trifluoromethyl-3,6-dihydro-2H-[1,4]oxazin-3-yl)-4-fluoro-phenyl]-amide hydrochloride] are 5 nM and 26 nM.
Turning to `C[C@@]1(c2cc(NC(=O)c3ncc(Cl)cc3F)ccc2F)CO[C@@](C)(C(F)(F)F)C(N)=N1` [Example 21, 5-Chloro-3-fluoro-pyridine-2-carboxylic acid [3-((3R,6R)-5-amino-3,6-dimethyl-6-trifluoromethyl-3,6-dihydro2H-[1,4]oxazin-3-yl)-4-fluoro-phenyl]-amide hydrochloride], the IC50 on Human BACE-1 was determined as 12 nM; in test [1], 9 nM.
`Cl.[2H]C([2H])([2H])Oc1cnc(C(=O)Nc2ccc(F)c([C@]3(C)CO[C@@](C)(C(F)(F)F)C(N)=N3)c2)c(Cl)c1` [Example 22, 3-Chloro-5-trideutero-methoxy-pyridine-2-carboxylic acid [3-((3R,6R)-5-amino-3,6-dimethyl-6-trifluoromethyl-3,6-dihydro-2H-[1,4]oxazin-3-yl)-4-fluoro-phenyl]-amide hydrochloride]: the IC50 at Human BACE-1 was found to be 20 nM; in test [1], 7 nM.
On to `Cc1nc(C(=O)Nc2ccc(F)c([C@]3(C)CO[C@@](C)(C(F)(F)F)C(N)=N3)c2)c(C)o1` [Example 23, 2,5-Dimethyl-oxazole-4-carboxylic acid [3-((3R,6R)-5-amino-3,6-dimethyl-6-trifluoromethyl-3,6-dihydro-2H-[1,4]oxazin-3-yl)-4-fluoro-phenyl]-amide hydrochloride], for which the IC50 on Human BACE-1 is 67 nM; in test [1], 160 nM.
On the same counts, the results for `Cc1cc(OC(F)F)cnc1C(=O)Nc1ccc(F)c([C@]2(C)CO[C@@](C)(C(F)(F)F)C(N)=N2)c1` [Example 24, 5-Difluoromethoxy-3-methyl-pyridine-2-carboxylic acid [3-((3R,6R)-5-amino-3(6-dimethyl-6-trifluoromethyl-3,6-dihydro-2H-[1,4]oxazin-3-yl)-4-fluoro-phenyl]-amide hydrochloride] are 14 nM and 6 nM.
Regarding `C#CCOc1cnc(C(=O)Nc2ccc(F)c([C@]3(C)CO[C@@](C)(C(F)(F)F)C(N)=N3)c2)c(N)n1` [Example 25, 3-Amino-5-prop-2-ynyloxy-pyrazine-2-carboxylic acid [3-((3R,6R)-5-amino-3,6-dimethyl-6-trifluoromethyl-3,6-dihydro-2H-[1,4]oxazin-3-yl)-4-fluoro-phenyl]-amide], the IC50 (on Human BACE-1; in test [1]) was 1 nM each time.
As for `Cc1cc(C(F)F)cnc1C(=O)Nc1ccc(F)c([C@]2(C)CO[C@@](C)(C(F)(F)F)C(N)=N2)c1` [Example 27, 5-Difluoromethyl-3-methyl-pyridine-2-carboxylic acid [3-((3R,6R)-5-amino-3,6-dimethyl-6-trifluoromethyl-3,6-dihydro-2H-[1,4]oxazin-3-yl)-4-fluoro-phenyl]-amide hydrochloride], the values for the IC50 (at Human BACE-1; in test [1]) were 16 nM and 10 nM, respectively.
On the same counts, the results for `C[C@@]1(c2cc(NC(=O)c3ncc(C(F)F)nc3N)ccc2F)CO[C@@](C)(C(F)(F)F)C(N)=N1` [Example 28, 3-Amino-5-difLuoromethyl-pyrazine-2-carboxylic acid [3-((3R,6R)-5-amino-3,6-dimethyl-6-trifluoromethyl-3,6-dihydro-2H-[1,4]oxazin-3-yl)-4-fluoro-phenyl]-amide] are 10 nM and 8 nM.
Turning to `C[C@@]1(c2cc(NC(=O)c3ncc(C(F)F)cc3N)ccc2F)CO[C@@](C)(C(F)(F)F)C(N)=N1` [Example 29, 3-Amino-5-difluoromethyl-pyridine-2-carboxylic acid [3-((3R,6R)-5-amino-3,6-dimethyl-6-trifluoromethyl-3,6-dihydro-2H-[1,4]oxazin-3-yl)-4-fluoro-phenyl]-amide], the IC50 came out at 14 nM on Human BACE-1 and 10 nM in test [1].
`COc1cc(C(F)F)c(C(=O)Nc2ccc(F)c([C@]3(C)CO[C@@](C)(C(F)(F)F)C(N)=N3)c2)nn1` [Example 30, 4-Difluoromethyl-6-methoxy-pyridazine-3-carboxylic acid [3-((3R,6R)-5-amino-3,6-dimethyl-6-trifluoromethyl-3,6-dihydro-2H-[1,4]oxazin-3-yl)-4-fluoro-phenyl]-amide hydrochloride]: the IC50 was found to be 150 nM on Human BACE-1 and 62 nM in test [1].
Regarding `[2H]C([2H])([2H])OCc1cc(C#N)cnc1C(=O)Nc1ccc(F)c([C@]2(C)CO[C@@](C)(C(F)(F)F)C(N)=N2)c1` [Example 31, 5-Cyano-3-trideuteromethoxymethyl-pyridine-2-carboxylic acid [3-((3R,6R)-5-amino-3,6-dimethyl-6-trifluoromethyl-3,6-dihydro-2H-[1,4]oxazin-3-yl)-4-fluoro-phenyl]-amide], the IC50 at Human BACE-1 was found to be 11 nM; in test [1] it was 9 nM.
On the same counts, the results for `C[C@@]1(c2cc(NC(=O)c3ncc(C(F)F)cc3Cl)ccc2F)CO[C@@](C)(C(F)(F)F)C(N)=N1` [Example 32, 3-Chloro-5-difluormethyl-pyridine-2-carboxylic acid [3-((3R,6R)-5-amino-3,6-dimethyl-6-trifluoromethyl-3,6-dihydro-2H-[1,4]oxazin-3-yl)-4-fluoro-phenyl]-amide] are 20 nM and 11 nM.
For `[2H]C([2H])([2H])OC([2H])([2H])c1cc2c(Cl)c[nH]c2nc1C(=O)Nc1ccc(F)c([C@]2(C)CO[C@@](C)(C(F)(F)F)C(N)=N2)c1` [Example 33, 3-Chloro-5-trideuteromethoxy-dideuteromethyl-1H-pyrrolo[2,3-b]pyridine-6-carboxylic acid [3-((3R,6R)-5-amino-3,6-dimethyl-6-trifluoromethyl-3,6-dihydro-2H-[1,4]oxazin-3-yl)-4-fluoro-phenyl]-amide], the half-inhibitory concentration (IC50) was determined as 13 nM on Human BACE-1 and 41 nM in test [1].
As for `C[C@@]1(c2cc(NC(=O)c3ncc(C(F)(F)F)cc3Cl)ccc2F)CO[C@@](C)(C(F)(F)F)C(N)=N1` [Example 34, 3-Chloro-5-trifluoromethyl-pyridine-2-carboxylic acid [3-((3R,6R)-5-amino-3,6-dimethyl-6-trifluoromethyl-3,6-dihydro-2H-[1,4]oxazin-3-yl)-4-fluoro-phenyl]-amide], the figures for the IC50 (on Human BACE-1; in test [1]) were 16 nM and 10 nM, respectively.
For the compound `[2H]C([2H])([2H])Oc1cnc(C(=O)Nc2ccc(F)c([C@]3(C)CO[C@@](C)(C(F)(F)F)C(N)=N3)c2)c(C)c1` [Example 36, 5-Trideuteromethoxy-3-methyl-pyridine-2-carboxylic acid [3-((3R,6R)-5-amino-3,6-dimethyl-6-trifluoromethyl-3,6-dihydro-2H-[1,4]oxazin-3-yl)-4-fluoro-phenyl]-amide], the IC50 was determined as 28 nM on Human BACE-1 and 18 nM in test [1].
Turning to `Cc1cc(OC(F)F)cnc1C(=O)Nc1ccc(F)c(C2(C)COC(CF)(CF)C(N)=N2)c1` (stereo not drawn) [Example 39, 5-Difluoromethoxy-3-methyl-pyridine-2-carboxylic acid [3-(5-amino-6,6-bis-fluoromethyl-3-methyl-3,6-dihydro-2H-[1,4]oxazin-3-yl)-4-fluoro-phenyl]-amide], the values for the IC50 (on Human BACE-1; in test [1]) were 300 nM and 22 nM, respectively.
In the case of `Cc1cc(OC(F)F)cnc1C(=O)Nc1ccc(F)c([C@]2(C)COC(CF)(CF)C(N)=N2)c1` [Example 40, 5-Difluoromethoxy-3-methyl-pyridine-2-carboxylic acid [3-((R)-5-amino-6,6-bis-fluoromethyl-3-methyl-3,6-dihydro-2H-[1,4]oxazin-3-yl)-4-fluoro-phenyl]-amide], the IC50 on Human BACE-1 was determined as 29 nM; in test [1], 4 nM.
On the same counts, the results for `Cc1cc(Cl)cnc1C(=O)Nc1ccc(F)c(C2(C)COC(CF)(CF)C(N)=N2)c1` (stereo not drawn) [Example 41, 5-Chloro-3-methyl-pyridine-2-carboxylic acid [3-(5-amino-6,6-bis-fluoromethyl-3-methyl-3,6-dihydro-2H-[1,4]oxazin-3-yl)-4-fluoro-phenyl]-amide] are 48 nM and 13 nM.
For the compound `Cc1cc(C#N)cnc1C(=O)Nc1ccc(F)c([C@]2(CF)COC(CF)(CF)C(N)=N2)c1` [Example 42, 5-Cyano-3-methyl-pyridine-2-carboxylic acid [3-((R)-5-amino-3,6,6-tris-fluoromethyl-3,6-dihydro-2H-[1,4]oxazin-3-yl)-4-fluoro-phenyl]-amide], the IC50 at Human BACE-1 stood at 12 nM; in test [1] it was 13 nM.
